According to patent publication US8198320B2, “Hypoglycemic activity of osthole” (Taipei Medical University, priority 2008, dated 2012):

How the values were obtained:
[1] = tested on: db/db diabetic mice; assay: Effect of intraperitoneal administration of osthole on blood glucose level of db/db diabetic mice; type: in vivo; conditions: male db/db mice, 50 mg/kg intraperitoneal once daily, five days a week for two weeks, fasted about 16 hours; before treatment about 360 mg/dL; DMSO control 550 mg/dL
Procedure: Six male db/db diabetic mice (6 to 11 week-old, purchased from National Laboratory Animal Center (Taipei, Taiwan)) were fasted for over 8 hours and venous blood was collected for the measurement of blood glucose level. The mice were divided into two groups (control group and experimental group) on the basis of their blood glucose level and body weight. The mice in the control group were given the solvent DMSO by means of intraperitoneal administration. The mice in the experimental group were given osthole (50 mg/kg body weight) (purchased from Hangzhou Gosun Biotechnologies Co., Zhejiang, China) by means of intraperitoneal administration. The solvent and osthole were administered once daily, five days a week for two weeks. The mice were then fasted for about 16 hours before being sacrificed and blood samples were collected for the measurement of blood glucose levels. […] After two weeks of treatment, the blood glucose level of the mice in the control group was elevated to 550 mg/dL, whereas the blood glucose level of the mice in the experimental group was maintained at about 360 mg/dL.

[2] = tested on: db/db diabetic mice; assay: Effect of oral administration of osthole on blood glucose level of db/db diabetic mice; type: in vivo; conditions: male db/db mice, 50 mg/kg by gastric tube once daily, five days a week for three weeks, fasted about 16 hours; before treatment about 200 mg/dL; PBS control 400 mg/dL
Procedure: Six male db/db diabetic mice (5 to 7 week-old, purchased from National Laboratory Animal Center (Taipei, Taiwan)) were fasted for over 8 hours and venous blood was collected for the measurement of blood glucose level. The mice were divided into two groups (control group and experimental group) on the basis of their blood glucose level and body weight. The mice in the control group were fed with PBS by gastric tube. The mice in the experimental group were fed with osthole (50 mg/kg body weight) by gastric tube. The PBS and osthole were administered once daily, five days a week for three weeks. The mice were then fasted for about 16 hours before being sacrificed and blood samples were collected for the measurement of blood glucose level. […] After three weeks of treatment, the blood glucose level of the mice in the control group was elevated to 400 mg/dL; whereas, the blood glucose level of the mice in the experimental group was maintained at about 210 mg/dL.

COc1ccc2ccc(=O)oc2c1CC=C(C)C [osthole, 7-methoxy-8-(3-methyl-2-butenyl)-2H-1-benzopyran-2-one]
blood glucose level after two weeks of treatment [1]: about 360 mg/dL
blood glucose level after three weeks of treatment [2]: about 210 mg/dL
